Legend:
Test in all cases: normalised viability (% of control), CellTiter-Blue; higher = more viable cells (about 100 = DMSO control)
Details in all cases: incubation time: 72 h
MFM-223 = tested on: MFM-223
Outline: (§1)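 384-well plates were pre-loaded with compound in 5 µl medium before 20 µl of breast cancer cell suspension was seeded. Following 72 h incubation, 2.5 µl CellTiter-Blue reagent was added for 2 h at 37 °C. Fluorescence was read at 560/590 nm and plates were normalised to vehicle (100) and a positive kill control (0), checked by Z'-factor. Normalised viability is reported at a single listed concentration of the series.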

CAL-148 [1] = tested on: CAL-148
Outline: as §1

BT-474 = tested on: BT-474
Outline: as §1

Hs578T [2] = tested on: Hs578T
Outline: as §1

CAL-51 [3] = tested on: CAL-51
Outline: as §1

HCC1599 [4] = tested on: HCC1599
Outline: as §1

BT-549 = tested on: BT-549
Outline: as §1

HDQ-P1 [5] = tested on: HDQ-P1
Outline: as §1

HCC1937 = tested on: HCC1937
Outline: as §1

HCC1143 = tested on: HCC1143
Outline: as §1

MDA-MB-453 = tested on: MDA-MB-453
Outline: as §1

MDA-MB-468 [6] = tested on: MDA-MB-468
Outline: as §1

MDA-MB-436 [7] = tested on: MDA-MB-436
Outline: as §1

DU-4475 = tested on: DU-4475
Outline: as §1

SK-BR-3 = tested on: SK-BR-3
Outline: as §1

MDA-MB-231 = tested on: MDA-MB-231
Outline: as §1

CAL-120 [8] = tested on: CAL-120
Outline: as §1

CAL-85-1 [9] = tested on: CAL-85-1
Outline: as §1

CAL-148 [10] = tested on: CAL-148; remark: listed apart in the source
Outline: as §1

Hs578T [11] = tested on: Hs578T; remark: listed apart in the source
Outline: as §1

CAL-51 [12] = tested on: CAL-51; remark: listed apart in the source
Outline: as §1

HCC1599 [13] = tested on: HCC1599; remark: listed apart in the source
Outline: as §1

HDQ-P1 [14] = tested on: HDQ-P1; remark: listed apart in the source
Outline: as §1

MDA-MB-468 [15] = tested on: MDA-MB-468; remark: listed apart in the source
Outline: as §1

MDA-MB-436 [16] = tested on: MDA-MB-436; remark: listed apart in the source
Outline: as §1

CAL-120 [17] = tested on: CAL-120; remark: listed apart in the source
Outline: as §1

CAL-85-1 [18] = tested on: CAL-85-1; remark: listed apart in the source
Outline: as §1

c1cc(CN2CCCNCCNCCCNCC2)ccc1CN1CCCNCCNCCCNCC1 [Plerixafor]
Details | normalised viability [%]
BT-474, 2.5 nM | 101
BT-474, 250 nM | 117
BT-474, 2500 nM | 97.6
BT-549, 2.5 nM | 92.7
BT-549, 250 nM | 95.9
BT-549, 2500 nM | 120
CAL-51 [3], 0.75 nM | 106
CAL-51 [3], 7.5 nM | 99
CAL-51 [3], 25 nM | 103
CAL-51 [12], 2.5 nM | 100
CAL-85-1 [9], 0.75 nM | 91.9
CAL-85-1 [9], 7.5 nM | 91.3
CAL-85-1 [9], 25 nM | 89.2
CAL-85-1 [18], 2.5 nM | 96.9
CAL-120 [8], 2.5 nM | 93.1
CAL-120 [8], 250 nM | 91.4
CAL-120 [8], 2500 nM | 96
CAL-120 [17], 25 nM | 80.1
CAL-148 [1], 0.75 nM | 77.3
CAL-148 [1], 7.5 nM | 89.2
CAL-148 [1], 25 nM | 82.7
CAL-148 [10], 2.5 nM | 92.3
DU-4475, 0.75 nM | 91.4
DU-4475, 7.5 nM | 97.3
DU-4475, 25 nM | 97.9
HCC1143, 2.5 nM | 81
HCC1143, 250 nM | 87.4
HCC1143, 2500 nM | 83.2
HCC1599 [4], 2.5 nM | 107
HCC1599 [4], 250 nM | 98.7
HCC1599 [4], 2500 nM | 115
HCC1599 [13], 25 nM | 101
HCC1937, 2.5 nM | 91.3
HCC1937, 250 nM | 103
HCC1937, 2500 nM | 111
HDQ-P1 [5], 0.75 nM | 106
HDQ-P1 [5], 7.5 nM | 123
HDQ-P1 [5], 25 nM | 111
HDQ-P1 [14], 2.5 nM | 112
Hs578T [2], 2.5 nM | 117
Hs578T [2], 250 nM | 97.3
Hs578T [2], 2500 nM | 102
Hs578T [11], 25 nM | 93.4
MDA-MB-231, 2.5 nM | 89.1
MDA-MB-231, 250 nM | 98.5
MDA-MB-231, 2500 nM | 102
MDA-MB-436 [7], 2.5 nM | 116
MDA-MB-436 [7], 250 nM | 107
MDA-MB-436 [7], 2500 nM | 118
MDA-MB-436 [16], 25 nM | 95.7
MDA-MB-453, 0.75 nM | 116
MDA-MB-453, 7.5 nM | 114
MDA-MB-453, 25 nM | 106
MDA-MB-468 [6], 2.5 nM | 109
MDA-MB-468 [6], 250 nM | 112
MDA-MB-468 [6], 2500 nM | 108
MDA-MB-468 [15], 25 nM | 98.5
MFM-223, 2.5 nM | 109
MFM-223, 250 nM | 104
MFM-223, 2500 nM | 101
SK-BR-3, 2.5 nM | 101
SK-BR-3, 250 nM | 99.7
SK-BR-3, 2500 nM | 106

Cn1cc(CNCC2CCN(c3ncc(C(=O)NO)cn3)CC2)c2ccccc21
Details | normalised viability [%]
BT-474, 1 nM | 97.9
BT-474, 100 nM | 8.46
BT-474, 1000 nM | 7.06
BT-549, 1 nM | 78
BT-549, 100 nM | 75.1
BT-549, 1000 nM | 12
CAL-51 [3], 0.3 nM | 116
CAL-51 [3], 3 nM | 115
CAL-51 [3], 10 nM | 97.2
CAL-51 [12], 1 nM | 102
CAL-85-1 [9], 0.3 nM | 90
CAL-85-1 [9], 3 nM | 79.9
CAL-85-1 [9], 10 nM | 65.1
CAL-85-1 [18], 1 nM | 90.7
CAL-120 [8], 1 nM | 88.7
CAL-120 [8], 100 nM | 12.5
CAL-120 [8], 1000 nM | 3.89
CAL-120 [17], 10 nM | 58.3
CAL-148 [1], 0.3 nM | 95.6
CAL-148 [1], 3 nM | 89.2
CAL-148 [1], 10 nM | 53.9
CAL-148 [10], 1 nM | 98.3
DU-4475, 0.3 nM | 88.5
DU-4475, 3 nM | 93.7
DU-4475, 10 nM | 60
HCC1143, 1 nM | 83
HCC1143, 100 nM | 23.6
HCC1143, 1000 nM | 11.1
HCC1599 [4], 1 nM | 101
HCC1599 [4], 100 nM | 28
HCC1599 [4], 1000 nM | 14.5
HCC1599 [13], 10 nM | 73.7
HCC1937, 1 nM | 69.2
HCC1937, 100 nM | 31.8
HCC1937, 1000 nM | 14.7
HDQ-P1 [5], 0.3 nM | 104
HDQ-P1 [5], 3 nM | 88.9
HDQ-P1 [5], 10 nM | 88.6
HDQ-P1 [14], 1 nM | 100
Hs578T [2], 1 nM | 128
Hs578T [2], 100 nM | 39.3
Hs578T [2], 1000 nM | 5.1
Hs578T [11], 10 nM | 86.8
MDA-MB-231, 1 nM | 103
MDA-MB-231, 100 nM | 17.7
MDA-MB-231, 1000 nM | 5.23
MDA-MB-436 [7], 1 nM | 94.5
MDA-MB-436 [7], 100 nM | 80.6
MDA-MB-436 [7], 1000 nM | 17.7
MDA-MB-436 [16], 10 nM | 77.9
MDA-MB-453, 0.3 nM | 113
MDA-MB-453, 3 nM | 63.6
MDA-MB-453, 10 nM | 25.8
MDA-MB-468 [6], 1 nM | 107
MDA-MB-468 [6], 100 nM | 38
MDA-MB-468 [6], 1000 nM | 14.5
MDA-MB-468 [15], 10 nM | 78.3
MFM-223, 1 nM | 88.9
MFM-223, 100 nM | 28.5
MFM-223, 1000 nM | 8.06
SK-BR-3, 1 nM | 86.2
SK-BR-3, 100 nM | 8.01
SK-BR-3, 1000 nM | 2.99

COc1cc(CCc2cc(NC(=O)c3ccc(N4CC(C)NC(C)C4)cc3)n[nH]2)cc(OC)c1 (centres undefined) [AZD4547]
Details | normalised viability [%]
BT-474, 1 nM | 121
BT-474, 100 nM | 119
BT-474, 1000 nM | 128
BT-549, 1 nM | 89.1
BT-549, 100 nM | 105
BT-549, 1000 nM | 112
CAL-51 [3], 0.3 nM | 120
CAL-51 [3], 3 nM | 107
CAL-51 [3], 10 nM | 99.8
CAL-51 [12], 1 nM | 103
CAL-85-1 [9], 0.3 nM | 91
CAL-85-1 [9], 3 nM | 90
CAL-85-1 [9], 10 nM | 94.6
CAL-85-1 [18], 1 nM | 101
CAL-120 [8], 1 nM | 86
CAL-120 [8], 100 nM | 80.4
CAL-120 [8], 1000 nM | 65.1
CAL-120 [17], 10 nM | 94
CAL-148 [1], 0.3 nM | 97.9
CAL-148 [1], 3 nM | 93.7
CAL-148 [1], 10 nM | 89.7
CAL-148 [10], 1 nM | 97.5
DU-4475, 0.3 nM | 92.3
DU-4475, 3 nM | 84
DU-4475, 10 nM | 103
HCC1143, 1 nM | 94.3
HCC1143, 100 nM | 87.9
HCC1143, 1000 nM | 93
HCC1599 [4], 1 nM | 92.5
HCC1599 [4], 100 nM | 77.4
HCC1599 [4], 1000 nM | 18.8
HCC1599 [13], 10 nM | 83.7
HCC1937, 1 nM | 157
HCC1937, 100 nM | 103
HCC1937, 1000 nM | 115
HDQ-P1 [5], 0.3 nM | 113
HDQ-P1 [5], 3 nM | 120
HDQ-P1 [5], 10 nM | 117
HDQ-P1 [14], 1 nM | 112
Hs578T [2], 1 nM | 102
Hs578T [2], 100 nM | 91.2
Hs578T [2], 1000 nM | 122
Hs578T [11], 10 nM | 92.7
MDA-MB-231, 1 nM | 110
MDA-MB-231, 100 nM | 105
MDA-MB-231, 1000 nM | 113
MDA-MB-436 [7], 1 nM | 105
MDA-MB-436 [7], 100 nM | 104
MDA-MB-436 [7], 1000 nM | 109
MDA-MB-436 [16], 10 nM | 102
MDA-MB-453, 0.3 nM | 119
MDA-MB-453, 3 nM | 91.5
MDA-MB-453, 10 nM | 95.8
MDA-MB-468 [6], 1 nM | 113
MDA-MB-468 [6], 100 nM | 105
MDA-MB-468 [6], 1000 nM | 105
MDA-MB-468 [15], 10 nM | 108
MFM-223, 1 nM | 91
MFM-223, 100 nM | 50.4
MFM-223, 1000 nM | 12.3
SK-BR-3, 1 nM | 112
SK-BR-3, 100 nM | 113
SK-BR-3, 1000 nM | 105
